Measurements published in ChEMBL document CHEMBL1149262, “Monoamine transporter binding, locomotor activity, and drug discrimination properties of 3-(4-substituted-phenyl)tropane-2-carboxylic acid methyl ester isomers” (J Med Chem, 2004).
Activity calls are given as the source filed them. No cut-off for these calls is given here.

Key:
Rattus norvegicus [1] = experiment: Drug discrimination effect in CD Albino rat assessed as percent of rat choosing cocaine lever at 1 mg/kg, ip; assay type: functional; conditions: route intraperitoneal
Mus musculus [2] = experiment: Locomotor activity in CD1 mouse assessed as stimulation at 3 mg/kg, ip after 2 hrs relative to control; assay type: functional; conditions: route intraperitoneal
Mus musculus [3] = experiment: Activity in CD1 mouse assessed as stereotypy at 100 mg/kg, ip after 4 hrs; assay type: functional, organism-based; design: dose 100 mg/kg
Mus musculus [4] = experiment: Activity in CD1 mouse assessed as stimulation at 1 mg/kg, ip after 4 hrs; assay type: functional, organism-based; design: dose 1 mg/kg
Mus musculus [5] = experiment: Locomotor activity in CD1 mouse assessed as stimulation at 3 mg/kg, ip after 4 hrs relative to control; assay type: functional; conditions: route intraperitoneal
Mus musculus [6] = experiment: Locomotor activity in CD1 mouse assessed as stimulation at 30 mg/kg, ip after 3 hrs relative to control; assay type: functional; conditions: route intraperitoneal
Rattus norvegicus [7] = experiment: Drug discrimination effect in CD Albino rat assessed as percent of rat choosing cocaine lever at 3 mg/kg, ip; assay type: functional; conditions: route intraperitoneal
Mus musculus [8] = experiment: Locomotor activity in CD1 mouse assessed as stimulation at 30 mg/kg, ip after 1 hr relative to control; assay type: functional; conditions: route intraperitoneal
Rattus norvegicus [9] = experiment: Drug discrimination effect in CD Albino rat assessed as percent of rat choosing cocaine lever at 1.7 mg/kg, ip; assay type: functional; conditions: route intraperitoneal
Mus musculus [10] = experiment: Locomotor activity in CD1 mouse assessed as stimulation at 30 mg/kg, ip after 2 hrs relative to control; assay type: functional; conditions: route intraperitoneal
Mus musculus [11] = experiment: Locomotor activity in ip dosed CD1 mouse in peak hour; assay type: functional
Mus musculus [12] = experiment: Locomotor activity in CD1 mouse assessed as stimulation at 10 mg/kg, ip after 2 hrs relative to control; assay type: functional; conditions: route intraperitoneal
Mus musculus [13] = experiment: Locomotor activity in CD1 mouse assessed as stimulation at 3 mg/kg, ip after 1 hr relative to control; assay type: functional; conditions: route intraperitoneal
Mus musculus [14] = experiment: Activity in CD1 mouse assessed as hyperactivity at 10 mg/kg, ip after 4 hrs; assay type: functional, organism-based; design: dose 10 mg/kg
Mus musculus [15] = experiment: Locomotor activity in CD1 mouse assessed as stimulation at 10 mg/kg, ip after 4 hrs relative to control; assay type: functional; conditions: route intraperitoneal
Mus musculus [16] = experiment: Activity in CD1 mouse assessed as stereotypy at 10 mg/kg, ip after 4 hrs; assay type: functional, organism-based; design: dose 10 mg/kg
Mus musculus [17] = experiment: Locomotor activity in CD1 mouse assessed as stimulation at 1 mg/kg, ip after 3 hrs relative to control; assay type: functional; conditions: route intraperitoneal
Mus musculus [18] = experiment: Locomotor activity in CD1 mouse assessed as stimulation at 10 mg/kg, ip after 1 hr relative to control; assay type: functional; conditions: route intraperitoneal
Mus musculus [19] = experiment: Locomotor activity in CD1 mouse assessed as stimulation at 10 mg/kg, ip after 3 hrs relative to control; assay type: functional; conditions: route intraperitoneal
Mus musculus [20] = experiment: Locomotor activity in CD1 mouse assessed as stimulation at 1 mg/kg, ip after 4 hrs relative to control; assay type: functional; conditions: route intraperitoneal
Mus musculus [21] = experiment: Activity in CD1 mouse assessed as circling at 100 mg/kg, ip after 4 hrs; assay type: functional, organism-based; design: dose 100 mg/kg
Mus musculus [22] = experiment: Locomotor activity in CD1 mouse assessed as stimulation at 1 mg/kg, ip after 1 hr relative to control; assay type: functional; conditions: route intraperitoneal
Mus musculus [23] = experiment: Locomotor activity in CD1 mouse assessed as stimulation at 3 mg/kg, ip after 3 hrs relative to control; assay type: functional; conditions: route intraperitoneal
[24] = biological target: Sodium-dependent serotonin transporter (Homo sapiens, UniProt P31645)
Description: Displacement of [3H]paroxetine from 5HTT

[25] = biological target: Sodium-dependent dopamine transporter (Homo sapiens, UniProt Q01959); experiment: Displacement of [3H]WIN-35428 from DAT
Rattus norvegicus [26] = experiment: Drug discrimination effect in CD Albino rat assessed as percent of rat choosing cocaine lever at 5.6 mg/kg, ip; assay type: functional; conditions: route intraperitoneal
Mus musculus [27] = experiment: Locomotor activity in CD1 mouse assessed as stimulation at 30 mg/kg, ip after 4 hrs relative to control; assay type: functional; conditions: route intraperitoneal
Rattus norvegicus [28] = experiment: Cocaine discrimination in ip dosed CD Albino rat; assay type: functional
Mus musculus [29] = experiment: Locomotor activity in CD1 mouse assessed as stimulation at 1 mg/kg, ip after 2 hrs relative to control; assay type: functional; conditions: route intraperitoneal
Mus musculus [30] = experiment: Activity in CD1 mouse assessed as hind limb splay at 100 mg/kg, ip after 4 hrs; assay type: functional, organism-based; design: dose 100 mg/kg; conditions: Hindlimb
Rattus norvegicus [31] = experiment: Drug discrimination effect in CD Albino rat assessed as percent of rat choosing cocaine lever at 17 mg/kg, ip; assay type: functional; conditions: route intraperitoneal
Mus musculus [32] = experiment: Activity in CD1 mouse assessed as ataxia at 100 mg/kg, ip after 4 hrs; assay type: functional, organism-based; design: dose 100 mg/kg
[33] = biological target: Sodium-dependent noradrenaline transporter (Homo sapiens, UniProt P23975); experiment: Displacement of [3H]nisoxetine from NET
Mus musculus [34] = experiment: Activity in CD1 mouse assessed as convulsions at 100 mg/kg, ip after 4 hrs; assay type: functional, organism-based; design: dose 100 mg/kg
Rattus norvegicus [35] = experiment: Drug discrimination effect in CD Albino rat assessed as percent of rat choosing cocaine lever at 30 mg/kg, ip; assay type: functional; conditions: route intraperitoneal
Mus musculus [36] = experiment: Activity in CD1 mouse assessed as slight or intermittent stimulation at 10 mg/kg, ip after 4 hrs; assay type: functional, organism-based; design: dose 10 mg/kg
Mus musculus [37] = experiment: Activity in CD1 mouse assessed as hypoactivity at 100 mg/kg, ip after 4 hrs; assay type: functional, organism-based; design: dose 100 mg/kg
Rattus norvegicus [38] = experiment: Drug discrimination effect in CD Albino rat assessed as percent of rat choosing cocaine lever at 10 mg/kg, ip; assay type: functional; conditions: route intraperitoneal
Mus musculus [39] = experiment: Activity in CD1 mouse assessed as circling at 10 mg/kg, ip after 4 hrs; assay type: functional, organism-based; design: dose 10 mg/kg
Mus musculus [40] = experiment: Locomotor activity in CD1 mouse assessed as stimulation at 0.1 mg/kg, ip after 1 hr relative to control; assay type: functional; conditions: route intraperitoneal
Rattus norvegicus [41] = experiment: Drug discrimination effect in CD Albino rat assessed as percent of rat choosing cocaine lever at 0.3 mg/kg, ip; assay type: functional; conditions: route intraperitoneal
Mus musculus [42] = experiment: Locomotor activity in CD1 mouse assessed as stimulation at 0.3 mg/kg, ip after 3 hrs relative to control; assay type: functional; conditions: route intraperitoneal
Mus musculus [43] = experiment: Locomotor activity in CD1 mouse assessed as stimulation at 0.3 mg/kg, ip after 2 hrs relative to control; assay type: functional; conditions: route intraperitoneal
Mus musculus [44] = experiment: Locomotor activity in CD1 mouse assessed as stimulation at 0.03 mg/kg, ip after 2 hrs relative to control; assay type: functional; conditions: route intraperitoneal
Mus musculus [45] = experiment: Locomotor activity in CD1 mouse assessed as stimulation at 0.03 mg/kg, ip after 4 hrs relative to control; assay type: functional; conditions: route intraperitoneal
Mus musculus [46] = experiment: Activity in CD1 mouse assessed as stereotypy at 1 mg/kg, ip after 4 hrs; assay type: functional, organism-based; design: dose 1 mg/kg
Mus musculus [47] = experiment: Locomotor activity in CD1 mouse assessed as stimulation at 0.03 mg/kg, ip after 1 hr relative to control; assay type: functional; conditions: route intraperitoneal
Mus musculus [48] = experiment: Locomotor activity in CD1 mouse assessed as stimulation at 0.3 mg/kg, ip after 1 hr relative to control; assay type: functional; conditions: route intraperitoneal
Mus musculus [49] = experiment: Locomotor activity in CD1 mouse assessed as stimulation at 0.03 mg/kg, ip after 3 hrs relative to control; assay type: functional; conditions: route intraperitoneal
Rattus norvegicus [50] = experiment: Drug discrimination effect in CD Albino rat assessed as percent of rat choosing cocaine lever at 0.17 mg/kg, ip; assay type: functional; conditions: route intraperitoneal
Mus musculus [51] = experiment: Locomotor activity in CD1 mouse assessed as stimulation at 0.1 mg/kg, ip after 3 hrs relative to control; assay type: functional; conditions: route intraperitoneal
Mus musculus [52] = experiment: Locomotor activity in CD1 mouse assessed as stimulation at 0.1 mg/kg, ip after 2 hrs relative to control; assay type: functional; conditions: route intraperitoneal
Mus musculus [53] = experiment: Locomotor activity in CD1 mouse assessed as stimulation at 0.1 mg/kg, ip after 4 hrs relative to control; assay type: functional; conditions: route intraperitoneal
Mus musculus [54] = experiment: Locomotor activity in CD1 mouse assessed as stimulation at 0.3 mg/kg, ip after 4 hrs relative to control; assay type: functional; conditions: route intraperitoneal
Rattus norvegicus [55] = experiment: Drug discrimination effect in CD Albino rat assessed as percent of rat choosing cocaine lever at 0.1 mg/kg, ip; assay type: functional; conditions: route intraperitoneal
Mus musculus [56] = experiment: Activity in CD1 mouse assessed as hyperactivity at 1 mg/kg, ip after 4 hrs; assay type: functional, organism-based; design: dose 1 mg/kg

Sodium-dependent dopamine transporter, sequence (Q01959 whole entry): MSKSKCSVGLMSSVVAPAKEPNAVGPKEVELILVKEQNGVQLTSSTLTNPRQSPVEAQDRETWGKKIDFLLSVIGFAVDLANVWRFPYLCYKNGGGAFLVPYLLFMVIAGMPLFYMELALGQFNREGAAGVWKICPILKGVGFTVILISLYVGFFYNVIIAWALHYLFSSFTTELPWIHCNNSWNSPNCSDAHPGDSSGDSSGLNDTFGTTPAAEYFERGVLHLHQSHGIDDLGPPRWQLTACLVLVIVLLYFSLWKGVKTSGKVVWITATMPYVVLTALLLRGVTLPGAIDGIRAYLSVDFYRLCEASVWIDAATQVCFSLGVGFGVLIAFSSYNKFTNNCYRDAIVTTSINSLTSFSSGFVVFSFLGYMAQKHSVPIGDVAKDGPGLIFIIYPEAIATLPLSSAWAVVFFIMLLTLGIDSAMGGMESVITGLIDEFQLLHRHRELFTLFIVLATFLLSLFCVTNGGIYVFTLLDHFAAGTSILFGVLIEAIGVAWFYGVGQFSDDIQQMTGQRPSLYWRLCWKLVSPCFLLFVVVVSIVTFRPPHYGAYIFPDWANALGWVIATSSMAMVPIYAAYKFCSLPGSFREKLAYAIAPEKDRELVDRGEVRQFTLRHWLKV
Sodium-dependent serotonin transporter, sequence (P31645 whole entry): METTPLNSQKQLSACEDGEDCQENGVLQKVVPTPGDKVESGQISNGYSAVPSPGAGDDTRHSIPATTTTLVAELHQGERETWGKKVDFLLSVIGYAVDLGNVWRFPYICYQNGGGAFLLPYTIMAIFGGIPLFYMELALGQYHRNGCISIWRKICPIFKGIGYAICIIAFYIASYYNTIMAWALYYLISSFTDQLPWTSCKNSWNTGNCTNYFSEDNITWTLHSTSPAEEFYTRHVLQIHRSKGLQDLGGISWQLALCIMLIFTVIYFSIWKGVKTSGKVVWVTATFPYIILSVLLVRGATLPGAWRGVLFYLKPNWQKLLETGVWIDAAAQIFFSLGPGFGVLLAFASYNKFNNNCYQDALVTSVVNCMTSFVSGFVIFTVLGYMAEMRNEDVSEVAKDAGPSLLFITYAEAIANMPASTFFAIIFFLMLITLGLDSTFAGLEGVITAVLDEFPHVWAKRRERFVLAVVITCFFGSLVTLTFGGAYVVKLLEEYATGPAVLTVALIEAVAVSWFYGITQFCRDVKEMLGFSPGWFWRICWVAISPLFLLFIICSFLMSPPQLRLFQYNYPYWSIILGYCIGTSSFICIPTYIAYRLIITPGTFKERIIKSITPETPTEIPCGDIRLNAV
Sodium-dependent noradrenaline transporter, sequence (P23975 whole entry): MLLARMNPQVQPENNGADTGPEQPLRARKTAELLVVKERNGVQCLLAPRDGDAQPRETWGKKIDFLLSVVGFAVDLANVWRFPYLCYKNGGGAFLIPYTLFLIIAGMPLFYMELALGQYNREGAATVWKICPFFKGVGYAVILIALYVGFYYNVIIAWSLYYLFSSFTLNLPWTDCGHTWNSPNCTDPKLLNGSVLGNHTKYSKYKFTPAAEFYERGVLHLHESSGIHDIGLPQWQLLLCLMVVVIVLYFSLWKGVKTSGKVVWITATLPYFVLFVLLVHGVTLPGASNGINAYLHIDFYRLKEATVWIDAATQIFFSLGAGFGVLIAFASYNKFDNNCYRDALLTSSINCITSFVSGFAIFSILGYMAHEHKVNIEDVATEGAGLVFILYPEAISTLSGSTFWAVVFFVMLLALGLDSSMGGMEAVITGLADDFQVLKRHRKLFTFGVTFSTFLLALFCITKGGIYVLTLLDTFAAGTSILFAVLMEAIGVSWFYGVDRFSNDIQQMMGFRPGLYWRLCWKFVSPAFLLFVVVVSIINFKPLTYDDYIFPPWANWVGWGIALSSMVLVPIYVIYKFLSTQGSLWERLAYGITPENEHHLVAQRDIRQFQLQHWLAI

| Compound | Activity (Mus musculus [2]) | Activity (Mus musculus [3]) | Activity (Mus musculus [5]) | Activity (Mus musculus [6]) | Activity (Rattus norvegicus [7]) | Activity (Mus musculus [8]) | Activity (Mus musculus [10]) | ED50 (Mus musculus [11]) | Activity (Mus musculus [12]) | Activity (Mus musculus [13]) | Activity (Mus musculus [15]) | Activity (Mus musculus [16]) | Activity (Mus musculus [17]) | Activity (Mus musculus [18]) | Activity (Mus musculus [20]) | Activity (Mus musculus [21]) | Activity (Mus musculus [22]) | IC50 [25] | ED50 (Rattus norvegicus [28]) | Activity (Mus musculus [29]) | further results |
| --- | --- | --- | --- | --- | --- | --- | --- | --- | --- | --- | --- | --- | --- | --- | --- | --- | --- | --- | --- | --- | --- |
| COC(=O)[C@@H]1C2CCC(C[C@H]1c1ccc(Br)cc1)N2C (stereo partly specified) | 88% | Active | 109% | 1275% | 50% | 518% | 861% | 6.6 mg/kg | 457% | 60% | 781% | Active | -56% | 353% | -12% | Active | 35% | 1.7 nM | 2.98 mg/kg | -26% | Activity (Rattus norvegicus [1]): 13%; Activity (Mus musculus [4]): Active; Activity (Rattus norvegicus [9]): 13%; Activity (Mus musculus [14]): Active; Activity (Mus musculus [19]): 686%; Activity (Mus musculus [23]): 100%; IC50 [24]: 84 nM; Ki [24]: 20.6 nM; Activity (Rattus norvegicus [26]): 88%; Activity (Mus musculus [27]): 883% |
| COC(=O)[C@H]1C2CCC(C[C@@H]1c1ccc(C)cc1)N2C (stereo partly specified) | 10% | – | 39% | 17% | 13% | -23% | 7% | – | -11% | 20% | 55% | – | 39% | 24% | -68% | Active | -42% | 207 nM | 7.11 mg/kg | -76% | Activity (Mus musculus [30]): Active; Activity (Rattus norvegicus [31]): 71%; Activity (Mus musculus [32]): Active; IC50 [33]: 2230 nM; Ki [33]: 1120 nM; Activity (Mus musculus [34]): Active; Activity (Rattus norvegicus [35]): 100%; Activity (Mus musculus [19]): 6%; Activity (Mus musculus [36]): Active; Activity (Mus musculus [23]): -1%; Activity (Mus musculus [37]): Active; Activity (Rattus norvegicus [26]): 43%; Activity (Rattus norvegicus [38]): 71%; Activity (Mus musculus [27]): 42% |
| COC(=O)[C@@H]1C2CCC(C[C@@H]1c1ccc(Br)cc1)N2C (stereo partly specified) | – | Active | – | – | – | – | – | 0.1 mg/kg | – | – | – | Active | 302% | – | 656% | Active | 258% | 1.7 nM | 0.17 mg/kg | 35% | Activity (Mus musculus [39]): Active; Activity (Mus musculus [40]): -38%; Activity (Rattus norvegicus [41]): 100%; Activity (Mus musculus [42]): 869%; Activity (Mus musculus [43]): 598%; Activity (Mus musculus [44]): -39%; Activity (Mus musculus [45]): -43%; Activity (Mus musculus [46]): Active; Activity (Mus musculus [47]): -30%; Activity (Mus musculus [48]): 259%; Activity (Mus musculus [49]): 9%; Activity (Rattus norvegicus [50]): 50%; Activity (Mus musculus [51]): 81%; IC50 [24]: 10.6 nM; Ki [24]: 0.96 nM; Activity (Mus musculus [52]): 29%; Activity (Mus musculus [53]): 116%; Activity (Mus musculus [54]): 834%; Activity (Rattus norvegicus [55]): 14%; Activity (Mus musculus [56]): Active |
